Data reported in patent publication US10709692B2, “Isoxazolidine derived inhibitors of receptor interacting protein kinase 1 (RIPK1)” (Denali Therapeutics Inc., priority 2015, dated 2020).
Values joined by “and” are separate entries in the source; they are usually repeats but may differ in a detail not shown here. Identical values can stand only once.

What was measured:
[1] = target: T1, receptor interacting protein kinase 1 (GST-hRIPK1 (8-327)) (Homo sapiens, UniProt Q13546); test: Fluorescent Polarization Binding (FP Binding) assay; details: 10 nM GST-hRIPK1 (8-327), 5 nM fluorescent-labeled ligand, 30 min at RT
T1 construct: GST-hRIPK1 (8-327) enzyme was generated by Proteros GmbH by Baculovirus expression system
T1 sequence (Q13546 8-327): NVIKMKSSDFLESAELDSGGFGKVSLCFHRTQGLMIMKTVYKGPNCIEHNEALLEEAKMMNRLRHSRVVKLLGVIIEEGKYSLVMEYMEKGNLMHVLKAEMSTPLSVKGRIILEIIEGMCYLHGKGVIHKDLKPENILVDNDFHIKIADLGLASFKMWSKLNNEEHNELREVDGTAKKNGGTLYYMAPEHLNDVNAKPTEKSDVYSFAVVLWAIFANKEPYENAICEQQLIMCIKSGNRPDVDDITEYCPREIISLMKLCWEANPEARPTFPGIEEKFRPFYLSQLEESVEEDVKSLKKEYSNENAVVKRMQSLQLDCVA
Summary of the method: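 Displacement of 5 nM fluorescent ligand from 10 nM GST-hRIPK1 (8-327), 30 min at room temperature in pH 7.5 HEPES buffer, 1% DMSO. Fluorescence polarization read (ex 531/em 595 nm); IC50 fitted from percent inhibition and averaged over at least two independent experiments.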

[2] = target: T1, receptor interacting protein kinase 1 (GST-hRIPK1 (8-327)); test: ADP-Glo luminescence assay, RIPK1 autophosphorylation; format: biochemical; details: 1.5 μg/mL GST-hRIPK1 (8-327), 50 μM ATP, 3 hours at room temperature
Experimental: (§1) Compound potency at receptor interacting protein kinase 1 and selectivity at receptor interacting protein kinase 2 and receptor interacting protein kinase 3 was determined in autophosphorylation mode, using an ADP-Glo luminescence assay, which measures the conversion of ATP to ADP.
(§2) GST-hRIPK1 (8-327) enzyme was generated by Proteros GmbH by Baculovirus expression system. GST-hRIPK2 (1-299) and GST-hRIPK3 (1-518) enzymes were purchased from SignalChem. Test compounds were diluted in DMSO and 0.1 μL of solution was dispensed to each well of a 384-well white solid microplates. The assay buffer was 50 mM HEPES pH 7.5, 50 mM NaCl, 30 mM MgCl2. The buffer was supplemented with 0.02% CHAPS, 0.01% of Pluronic F127, 0.1 mg/mL BSA and 1 mM DTT. Only for receptor interacting protein kinase 1 5 mM MnCl2, was included in the assay buffer on the day of the experiment. The enzymatic reaction consisted of 1.5 μg/mL GST-hRIPK1 (8-327) and 50 μM ATP for receptor interacting protein kinase 1, 0.4 μg/mL GST-hRIPK2 (1-299) and 150 μM ATP, 0.4 μg/mL GST-hRIPK3 (1-518) and 15 μM ATP. 5 μL of enzyme and 5 μL of ATP were added to the plate at twice the final assay concentration and incubated at room temperature for 3 hours. Following this reaction, 10 μL of ADP-Glo reagent (Promega) was added to each well and incubated for 40 minutes at room temperature. This stops the kinase reaction and depletes any remaining ATP. 20 μL of ADP-Glo detection reagent was then added to each well and incubated at room temperature for at least 15 minutes. The detection reagent converts ADP to ATP and introduces luciferase and luciferin to detect ATP. The luminescence is then measured with the Envision (PerkinElmer) plate reader. Test compound inhibition was expressed as percent inhibition of internal assay controls. For concentration response curves, normalized data is fit and pIC50 determined using XL-fit (IDBS) for Excel. The pIC50 were averaged to determine a mean value, for a minimum of two independent experiments.
as §1, with “Certain compounds were tested in the following. Compound” for “Compound”, “assay (Berger S. B. et al. (2015) Cell Death Discovery, 1: 15009),” for “assay,”
GST-hRIPK1 (8-327) enzyme was generated by Proteros GmbH by Baculovirus expression system.
as §2, with “Test” for “GST-hRIPK1 (8-327) enzyme was generated by Proteros GmbH by Baculovirus expression system. GST-hRIPK2 (1-299) and GST-hRIPK3 (1-518) enzymes were purchased from SignalChem. Test”, “microplate.” for “microplates.”, “comprised” for “consisted of”, “1” for “1, 0.4 μg/mL GST-hRIPK2 (1-299) and 150 μM ATP, 0.4 μg/mL GST-hRIPK3 (1-518)”, “IC50” for “pIC50”, “experiments. […]” for “experiments.”

SMILES: CC(C)(C)C(=O)N1OCCC1c1ccc(F)cc1 (single isomer, unassigned) [Compound 73, 1-[3-(4-Fluorophenyl)-1,2-oxazolidin-2-yl]-2,2-dimethylpropan-1-one]
- IC50 [1]: < 1000 nM
- IC50 [2]: < 1000 nM

SMILES: Cc1ncc([C@@H]2CCON2C(=O)C(C)(C)C)cc1F (single isomer, unassigned) [Compound 97]
- IC50 [1]: < 1000 nM
- IC50 [2]: < 1000 nM

SMILES: Cn1cc([C@@H]2CCON2C(=O)C(C)(C)C)cn1 (single isomer, unassigned) [Compound 106]
- IC50 [1]: < 1000 nM
- IC50 [2]: < 1000 nM

SMILES: CC(C)(C)C(=O)N1OCC[C@H]1c1cccc(F)c1 (stereo in doubt) [Compound 23, 1-[3-(3-Fluorophenyl)-1,2-oxazolidin-2-yl]-2,2-dimethylpropan-1-one]
- IC50 [1]: < 1000 nM
- IC50 [2]: < 1000 nM

SMILES: Cn1c(C#N)ccc1C(=O)N1OCC[C@H]1c1ccccc1 [Compound 1, 1-Methyl-5-[(3S)-3-phenyl-1,2-oxazolidine-2-carbonyl]-1H-pyrrole-2-carbonitrile]
- IC50 [1]: < 1000 nM
- IC50 [2]: < 1000 nM

SMILES: CC(C)(C)C(=O)N1OCC[C@H]1c1ccccc1 [Compound 2, 2,2-dimethyl-1-[(3S)-3-phenyl-1,2-oxazolidin-2-yl]propan-1-one]
- IC50 [1]: < 1000 nM
- IC50 [2]: < 1000 nM

SMILES: O=C(Nc1ccccc1)N1OCC[C@H]1c1ccccc1 [Compound 4, (3S)—N,3-diphenyl-1,2-oxazolidine-2-carboxamide]
- IC50 [1]: < 1000 nM
- IC50 [2]: < 1000 nM

SMILES: CC1(C(=O)N2OCC[C@H]2c2ccccc2)COC1 [Compound 8, (3S)-2-(3-Methyloxetane-3-carbonyl)-3-phenyl-1,2-oxazolidine]
- IC50 [1]: < 1000 nM
- IC50 [2]: < 1000 nM

SMILES: O=C(C1CC1)N1OCC[C@H]1c1ccccc1 [Compound 12, (3S)-2-Cyclopropanecarbonyl-3-phenyl-1,2-oxazolidine]
- IC50 [1]: < 1000 nM
- IC50 [2]: < 1000 nM

SMILES: C[C@@H](O)C(=O)N1OCC[C@H]1c1ccccc1 [Compound 14, (2R)-2-Hydroxy-1-[(3S)-3-phenyl-1,2-oxazolidin-2-yl]propan-1-one]
- IC50 [2]: > 10000 nM

SMILES: N#CC1(C(=O)N2OCC[C@H]2c2ccccc2)CC1 [Compound 16, 1-[(3S)-3-phenyl-1,2-oxazolidine-2-carbonyl]cyclopropane-1-carbonitrile]
- IC50 [1]: < 1000 nM
- IC50 [2]: < 1000 nM

SMILES: CC(C)(C#N)C(=O)N1OCC[C@H]1c1ccccc1 [Compound 17, 2,2-Dimethyl-3-oxo-3-[(3S)-3-phenyl-1,2-oxazolidin-2-yl]propanenitrile]
- IC50 [1]: < 1000 nM
- IC50 [2]: < 1000 nM

SMILES: O=C(c1onc2ccccc12)N1OCC[C@H]1c1ccccc1 [Compound 18, 3-[(3S)-3-phenyl-1,2-oxazolidine-2-carbonyl]-2,1-benzoxazole]
- IC50 [1]: < 1000 nM
- IC50 [2]: < 1000 nM

SMILES: CC(C)(O)C(=O)N1OCC[C@H]1c1ccccc1 [Compound 19, 2-Hydroxy-2-methyl-1-[(3S)-3-phenyl-1,2-oxazolidin-2-yl]propan-1-one]
- IC50 [1]: < 1000 nM
- IC50 [2]: < 1000 nM

SMILES: CC1(C(=O)N2OCC[C@H]2c2ccccc2)CC1 [Compound 20, (3S)-2-(1-Methylcyclopropanecarbonyl)-3-phenyl-1,2-oxazolidine]
- IC50 [1]: < 1000 nM
- IC50 [2]: < 1000 nM

SMILES: CC(C)(C)OC(=O)N1OCC[C@H]1c1ccccc1 [Compound 22, tert-Butyl (3S)-3-phenyl-1,2-oxazolidine-2-carboxylate]
- IC50 [2]: 1000 to 10000 nM

SMILES: CC(C)C(=O)N1OCC[C@H]1c1ccc(F)cc1 [Compound 64, 1-[(3S)-3-(4-Fluorophenyl)-1,2-oxazolidin-2-yl]-2-methylpropan-1-one]
- IC50 [1]: < 1000 nM
- IC50 [2]: < 1000 nM

SMILES: CC1(C(=O)N2OCC[C@H]2c2ccccc2)CCOCC1 [Compound 69, (3S)-2-(4-methyloxane-4-carbonyl)-3-phenyl-1,2-oxazolidine]
- IC50 [1]: < 1000 nM
- IC50 [2]: < 1000 nM

SMILES: CC(C)(C)C(=O)N1OCCC1c1ccc(F)nc1 (stereo not drawn) [Compound 70]
- IC50 [1]: < 1000 nM
- IC50 [2]: < 1000 nM

SMILES: CC(C)(C)C(=O)N1OCC[C@@H]1c1ccccc1F [Compound 71]
- IC50 [1]: < 1000 nM
- IC50 [2]: < 1000 nM

SMILES: CC(C)(C)C(=O)N1OCC[C@H]1c1ccccc1F [Compound 72]
- IC50 [1]: < 1000 nM
- IC50 [2]: < 1000 nM

SMILES: CC1(C(=O)N2OCC[C@H]2c2ccccc2)CCC1 [Compound 77, (3S)-2-(1-Methylcyclobutane-carbonyl)-3-phenyl-1,2-oxazolidine]
- IC50 [1]: < 1000 nM
- IC50 [2]: < 1000 nM

SMILES: CC(C)C(=O)N1OCC[C@H]1c1ccccc1 [Compound 78, 2-Methyl-1-[(3S)-3-phenyl-1,2-oxazolidin-2-yl]propan-1-one]
- IC50 [1]: < 1000 nM
- IC50 [2]: < 1000 nM

SMILES: N#CC1(C(=O)N2OCC[C@H]2c2ccccc2)CCC1 [Compound 79, 1-[(3S)-3-Phenyl-1,2-oxazolidine-2-carbonyl]cyclobutane-1-carbonitrile]
- IC50 [1]: < 1000 nM
- IC50 [2]: < 1000 nM

SMILES: COC(C)(C)C(=O)N1OCC[C@H]1c1ccccc1 [Compound 80, 2-Methoxy-2-methyl-1-[(3S)-3-phenyl-1,2-oxazolidin-2-yl]propan-1-one]
- IC50 [1]: < 1000 nM
- IC50 [2]: < 1000 nM

SMILES: CC(C)(C)C(=O)N1OCCC1c1cccnc1F (stereo not drawn) [Compound 81, 1-(3-(2-fluoropyridin-3-yl)isoxazolidin-2-yl)-2,2-dimethylpropan-1-one]
- IC50 [1]: < 1000 nM
- IC50 [2]: < 1000 nM

SMILES: CC(C)(C)OC(=O)N1OCCC1c1ccccc1 (stereo not drawn) [Compound 83, tert-butyl 3-phenylisoxazolidine-2-carboxylate]
- IC50 [2]: 1000 to 10000 nM

SMILES: CC(C)(C)C(=O)N1OCC[C@@H]1c1ccccc1 [Compound 84, (R)-2,2-dimethyl-1-(3-phenylisoxazolidin-2-yl)propan-1-one]
- IC50 [2]: > 10000 nM

SMILES: Cn1c(C#N)ccc1C(=O)N1OCC[C@@H]1c1ccccc1 [Compound 85, (R)-1-methyl-5-(3-phenylisoxazolidine-2-carbonyl)-1H-pyrrole-2-carbonitrile]
- IC50 [2]: > 10000 nM

SMILES: CC(C)(C)C(=O)N1OCC[C@H]1c1ccc(C#N)cc1 [Compound 87, 4-[(3S)-2-(2,2-dimethylpropanoyl)-1,2-oxazolidin-3-yl]benzonitrile]
- IC50 [1]: < 1000 nM
- IC50 [2]: < 1000 nM

SMILES: CC(C)(C(=O)N1OCC[C@H]1c1ccc(C#N)cc1)C(F)F [Compound 88, 4-[(3S)-2-(3,3-difluoro-2,2-dimethylpropanoyl)-1,2-oxazolidin-3-yl]benzonitrile]
- IC50 [1]: < 1000 nM and 16 nM
- IC50 [2]: < 1000 nM
